Measured values: ChEMBL document CHEMBL1275506, “Expanded-spectrum beta-lactamase PER-1 in an environmental Aeromonas media isolate from Switzerland” (2008)
In brackets after ≈: the same amount, converted by molar mass.

Assays:
Format in all cases: functional
Escherichia coli [1] = test: Antibacterial activity against Escherichia coli J53 harboring plasmid pAM carrying beta-lactamase PER-1 by Etest in presence of clavulanic acid
Escherichia coli [2] = test: Antibacterial activity against Escherichia coli J53 harboring plasmid pAM carrying beta-lactamase PER-1 by Etest
Aeromonas sp. [3] = test: Antibacterial activity against Aeromonas sp. isolate A72 by Etest
Aeromonas sp. [4] = test: Antibacterial activity against Aeromonas sp. isolate A72 by Etest in presence of clavulanic acid
Escherichia coli [5] = test: Antibacterial activity against Escherichia coli J53 by Etest
Escherichia coli [6] = test: Antibacterial activity against Escherichia coli J53 by Etest in presence of clavulanic acid

SMILES	MIC (Escherichia coli [1]) [µg/mL]	MIC (Escherichia coli [2]) [µg/mL]	MIC (Aeromonas sp. [3]) [µg/mL]	MIC (Aeromonas sp. [4]) [µg/mL]	MIC (Escherichia coli [5]) [µg/mL]	MIC (Escherichia coli [6]) [µg/mL]
CC1(C)S[C@@H]2[C@H](NC(=O)[C@H](N)c3ccc(O)cc3)C(=O)N2[C@H]1C(=O)O [AMOXICILLIN]	4	> 256	> 256	8	4 (≈ 10.9 µM)	4
CO/N=C(\C(=O)N[C@@H]1C(=O)N2C(C(=O)[O-])=C(C[N+]3(C)CCCC3)CS[C@H]12)c1csc(N)n1 [CEFEPIME]		8 (≈ 16.6 µM)	4 (≈ 8.32 µM)			
CO/N=C(\C(=O)N[C@@H]1C(=O)N2C(C(=O)O)=C(COC(C)=O)CS[C@H]12)c1csc(N)n1 [CEFOTAXIME]		> 32	> 32		0.06 (≈ 0.132 µM)	
CO[C@@]1(NC(=O)Cc2cccs2)C(=O)N2C(C(=O)O)=C(COC(N)=O)CS[C@@H]21 [CEFOXITIN]		2 (≈ 4.68 µM)	2 (≈ 4.68 µM)		2 (≈ 4.68 µM)	
CC(C)(O/N=C(\C(=O)N[C@@H]1C(=O)N2C(C(=O)[O-])=C(C[n+]3ccccc3)CS[C@H]12)c1csc(N)n1)C(=O)O [CEFTAZIDIME]		> 256	> 256		0.06 (≈ 0.11 µM)	
CC(=O)OCC1=C(C(=O)O)N2C(=O)[C@@H](NC(=O)Cc3cccs3)[C@H]2SC1 [CEPHALOTHIN]		> 64	> 64		8 (≈ 20.2 µM)	
C[C@@H](O)[C@H]1C(=O)N2C(C(=O)O)=C(SCCNC=N)C[C@H]12 [IMIPENEM ANHYDROUS]		0.25 (≈ 0.835 µM)	0.25 (≈ 0.835 µM)			
CC1(C)S[C@@H]2[C@H](NC(=O)[C@H](C(=O)O)c3ccsc3)C(=O)N2[C@H]1C(=O)O [TICARCILLIN]	8	> 256	> 256	128	4 (≈ 10.4 µM)	4
